Experimental data: US11753407B2, “Compounds for treating spinal muscular atrophy” (PTC Therapeutics, Inc., priority 2012, dated 2023)

What was measured:
[1] = tested on: SMN2 minigene mRNA (SMN2-A minigene) in HEK293H cells; test: SMN2 minigene mRNA splicing RT-qPCR assay in cultured cells; assay type: cell-based, human; conditions: Homo sapiens, HEK293-H; concentration increasing full length SMN2 mRNA 1.5-fold relative to vehicle-treated cells; HEK293H cells with SMN2-A minigene, 24 hours, 7-point concentration data; read-out: EC1.5x for production of full length SMN2 mRNA
Experimental: The reverse transcription-quantitative PCR-based (RT-qPCR) assay is used to quantify the level of the full length SMN2 minigene mRNA containing SMN2 exon 7 in a HEK293H cell line stably transfected with said minigene and treated with a test compound.
Protocol. HEK293H cells stably transfected with the SMN2-A minigene construct described above (10,000 cells/well) are seeded in 200 μL of cell culture medium (DMEM plus 10% FBS, with 200 μg/mL hygromycin) in 96-well flat-bottom plates and the plate is immediately swirled to ensure proper dispersal of cells, forming an even monolayer of cells. Cells are allowed to attach for at least 4-6 hours. Test compounds are serially diluted 3.16-fold in 100% DMSO to generate a 7-point concentration curve. A solution of test compound (1 μL, 200× in DMSO) is added to each cell-containing well and the plate is incubated for 24 hours in a cell culture incubator (37° C., 5% CO2, 100% relative humidity). 2 replicates are prepared for each test compound concentration. The cells are then lysed in Cells-To-Ct lysis buffer and the lysate is stored at −80° C.
Primer SMN Forward A (SEQ ID NO. 1) hybridizes to a nucleotide sequence in exon 7 (nucleotide 22 to nucleotide 40), primer SMN Reverse A (SEQ ID NO. 2) hybridizes to a nucleotide sequence in the coding sequence of Firefly luciferase, SMN Probe A (SEQ ID NO. 3) hybridizes to a nucleotide sequence in exon 7 (nucleotide 50 to nucleotide 54) and exon 8 (nucleotide 1 to nucleotide 21). The combination of these three oligonucleotides detects only SMN1 or SMN2 minigenes (RT-qPCR) and will not detect endogenous SMN1 or SMN2 genes.
The SMN forward and reverse primers are used at final concentrations of 0.4 μM. The SMN probe is used at a final concentration of 0.15 μM. The GAPDH primers are used at final concentrations of 0.2 μM and the probe at 0.15 μM.
The SMN2-minigene GAPDH mix (15 μL total volume) is prepared by combining 7.5 μL of 2× RT-PCR buffer, 0.4 μL of 25× RT-PCR enzyme mix, 0.75 μL of 20× GAPDH primer-probe mix, 4.0075 μL of water, 2 μL of 10-fold diluted cell lysate, 0.06 μL of 100 μM SMN forward primer, 0.06 μL of 100 μM SMN reverse primer, and […].
PCR is carried out at the following temperatures for the indicated time: Step 1: 48° C. (15 min); Step 2: 95° C. (10 min); Step 3: 95° C. (15 sec); Step 4: 60° C. (1 min); then repeat Steps 3 and 4 for a total of 40 cycles.
Each reaction mixture contains both SMN2-A minigene and GAPDH primers/probe sets (multiplex design), allowing simultaneous measurement of the levels of two transcripts.
Two SMN spliced products are generated from the SMN2 minigene. The first spliced product containing exon 7, corresponding to full length SMN2 mRNA, is referred to herein using the term “SMN2 minigene FL.” The second spliced product lacking exon 7 is referred to herein using the term “SMN2 minigene Δ7.”
The increase of SMN2 minigene FL mRNA relative to that in cells treated with vehicle control is determined from real-time PCR data using a modified ΔΔCt method (as described in Livak and Schmittgen, Methods, 2001, 25:402-8). The amplification efficiency (E) is calculated from the slope of the amplification curve for SMN2 minigene FL and GAPDH individually. The abundances of SMN2 minigene FL and GAPDH are then calculated as (1+E)^−Ct, where Ct is the threshold value for each amplicon. The abundance of SMN2 minigene FL is normalized to GAPDH abundance. The normalized SMN2 minigene FL abundance from test compound-treated samples is then divided by normalized SMN2 minigene FL abundance from vehicle-treated cells to determine the level of SMN2 FL mRNA relative to vehicle control.
For compounds of Formula (I) or a form thereof disclosed herein, Table 4 provides the […] for production of full length SMN2 mRNA that was obtained from the 7-point concentration data generated for each test compound according to the procedure of Biological Example 2. […]

[2] = tested on: Smn protein in SMA patient fibroblast cells (GM03813); test: Smn protein assay in cultured cells (SMN HTRF); assay type: cell-based, human; conditions: SMA patient fibroblast cells, 48 hours; for EC1.5x for Smn protein expression: 7-point concentration curve, SMN HTRF, concentration producing 1.5 times Smn protein vs DMSO vehicle control; for maximum fold (Fold) increase of Smn protein: 7-point concentration data, fold relative to vehicle control
Experimental: The SMN HTRF (homogeneous time resolved fluorescence) assay is used to quantify the level of Smn protein in SMA patient fibroblast cells treated with test compounds.
Protocol. Cells are thawed and cultured in DMEM-10% FBS for 72 hours. Cells are trypsinized, counted and re-suspended to a concentration of 25,000 cells/mL in DMEM-10% FBS. The cell suspension is plated at 5,000 cells per well in a 96 well microtiter plate and incubated for 3 to 5 hours. […] Test compounds are serially diluted 3.16-fold in 100% DMSO to generate a 7-point concentration curve. 1 μL of test compound solution is transferred to cell-containing wells and cells are incubated for 48 hours in a cell culture incubator (37° C., 5% CO2, 100% relative humidity). Triplicate samples are set up for each test compound concentration. After 48 hours, the supernatant is removed from the wells and 25 μL of the RIPA lysis buffer, containing protease inhibitors, is added to the wells and incubated with shaking at room temperature for 1 hour. 25 μL of the diluent is added and then 35 μL of the resulting lysate is transferred to a 384-well plate, where each well contains 5 μL of the antibody solution (1:100 dilution of anti-SMN d2 and anti-SMN kryptate in SMN reconstitution buffer). The plate is centrifuged for 1 minute to bring the solution to the bottom of the wells, then incubated overnight at room temperature. Fluorescence for each well of the plate at 665 nm and 620 nm is measured on an EnVision multilabel plate reader (Perkin-Elmer).
The normalized fluorescence signal is calculated for each sample, Blank and vehicle control well by dividing the signal at 665 nm by the signal at 620 nm. Normalizing the signal accounts for possible fluorescence quenching due to the matrix effect of the lysate. The ΔF value (a measurement of Smn protein abundance as a percent value) for each sample well is calculated by subtracting the normalized average fluorescence for the Blank control wells from the normalized fluorescence for each sample well, then dividing this difference by the normalized average fluorescence for the Blank control wells and multiplying the resulting value by 100. The ΔF value for each sample well represents the Smn protein abundance from test compound-treated samples. The ΔF value for each sample well is divided by the ΔF value for the vehicle control wells to calculate the fold increase in Smn protein abundance relative to the vehicle control.
For compounds of Formula (I) or a form thereof disclosed herein, Table 9 provides the EC1.5× for Smn protein expression that was obtained from the 7-point concentration data generated for each test compound according to the procedure of Biological Example 7. The term “EC1.5× for Smn protein expression” is defined as that concentration of test compound that is effective in producing 1.5 times the amount of Smn protein in an SMA patient fibroblast cell compared to the amount produced from the DMSO vehicle control. An EC1.5× for Smn protein expression between >3 μM and ≤10 μM is indicated by one star (*), an EC1.5× between >1 μM and ≤3 μM is indicated by two stars (**), an EC1.5× between >0.3 μM and ≤1 μM is indicated by three stars (***) and an EC1.5x≤0.3 μM is indicated by four stars (****).
For compounds of Formula (I) or a form thereof disclosed herein, Table 10 provides the maximum fold (Fold) increase of Smn protein that was obtained from the 7-point concentration data generated for each test compound according to the procedure of Biological Example 7. A maximum fold increase of ≤1.2 is indicated by one star (*), a fold increase between >1.2 and ≤1.35 is indicated by two stars (**), a fold increase between >1.35 and ≤1.5 is indicated by three stars (***), a fold increase between >1.5 and ≤1.65 is indicated by four stars (****) and a fold increase >1.65 is indicated by five stars (*****).

Structure (SMILES)	EC (1.5-fold increase) [1] [µM]	EC1.5x for Smn protein expression [2]	maximum fold (Fold) increase of Smn protein [2]
Cc1cn2cc(-c3cc(=O)n4cc(N5CCN6CCC[C@H]6C5)ccc4n3)cc(C)c2n1 [Compound 820, 2-(2,8-dimethylimidazo[1,2-a]pyridin-6-yl)-7-[(8aS)-hexahydropyrrolo[1,2-a]pyrazin-2(1H)-yl]-4H-pyrido[1,2-a]pyrimidin-4-one]	< 0.1	**** (an EC1.5x≤0.3 μM is indicated by four stars (****))	***** (a fold increase >1.65 is indicated by five stars (*****))
CCc1nc(C)cn2nc(-c3cc(=O)n4cc(OCCCN5CCOCC5)ccc4n3)cc12 [Compound 833, 2-(4-ethyl-6-methylpyrazolo[1,5-a]pyrazin-2-yl)-7-[3-(morpholin-4-yl)propoxy]-4H-pyrido[1,2-a]pyrimidin-4-one]	< 0.1	** (an EC1.5× between >1 μM and ≤3 μM is indicated by two stars (**))	***** (a fold increase >1.65 is indicated by five stars (*****))
CCc1nc(C)cn2nc(-c3cc(=O)n4cc(C5CCN(CC)CC5)cc(C)c4n3)cc12 [Compound 790, 2-(4-ethyl-6-methylpyrazolo[1,5-a]pyrazin-2-yl)-7-(1-ethylpiperidin-4-yl)-9-methyl-4H-pyrido[1,2-a]pyrimidin-4-one]	< 0.1	**** (an EC1.5x≤0.3 μM is indicated by four stars (****))	***** (a fold increase >1.65 is indicated by five stars (*****))
Cc1cn2nc(-c3cc(=O)n4cc(C5CCNCC5)ncc4n3)cc2c(C)n1 [Compound 502, 2-(4,6-dimethylpyrazolo[1,5-a]pyrazin-2-yl)-7-(piperidin-4-yl)-4H-pyrazino[1,2-a]pyrimidin-4-one]	< 0.1	**** (an EC1.5x≤0.3 μM is indicated by four stars (****))	***** (a fold increase >1.65 is indicated by five stars (*****))
Cc1cn2nc(-c3cc(=O)n4cc(N5CCN(CCOCCO)[C@H](C)C5)cc(C)c4n3)cc2c(C)n1 [Compound 670, 2-(4,6-dimethylpyrazolo[1,5-a]pyrazin-2-yl)-7-{(3R)-4-[2-(2-hydroxyethoxy)ethyl]-3-methylpiperazin-1-yl}-9-methyl-4H-pyrido[1,2-a]pyrimidin-4-one]	< 0.1	**** (an EC1.5x≤0.3 μM is indicated by four stars (****))	***** (a fold increase >1.65 is indicated by five stars (*****))
Cc1cn2nc(-c3cc(=O)n4cc(N5CCCNCC5)ccc4n3)cc2c(C)n1 [Compound 132, 7-(1,4-diazepan-1-yl)-2-(4,6-dimethylpyrazolo[1,5-a]pyrazin-2-yl)-4H-pyrido[1,2-a]pyrimidin-4-one]	< 0.1	**** (an EC1.5x≤0.3 μM is indicated by four stars (****))	***** (a fold increase >1.65 is indicated by five stars (*****))
CCc1nc(C)cn2nc(-c3cc(=O)n4cc(N5CC[C@H](N(C)C)C5)ccc4n3)cc12 [Compound 815, 7-[(3S)-3-(dimethylamino)pyrrolidin-1-yl]-2-(4-ethyl-6-methylpyrazolo[1,5-a]pyrazin-2-yl)-4H-pyrido[1,2-a]pyrimidin-4-one]	< 0.1	**** (an EC1.5x≤0.3 μM is indicated by four stars (****))	***** (a fold increase >1.65 is indicated by five stars (*****))
CCc1nc(C)cn2nc(-c3cc(=O)n4cc(NCCN5CCOCC5)ccc4n3)cc12 [Compound 823, 2-(4-ethyl-6-methylpyrazolo[1,5-a]pyrazin-2-yl)-7-{[2-(morpholin-4-yl)ethyl]amino}-4H-pyrido[1,2-a]pyrimidin-4-one]	3 to 30		** (a fold increase between >1.2 and ≤1.35 is indicated by two stars (**))
